# ChEMBL document CHEMBL5576131, “Atropisomerism Observed in Galactose-Based Monosaccharide Inhibitors of Galectin-3 Comprising 2-Methyl-4-phenyl-2,4-dihydro-3H-1,2,4-triazole-3-thione” (J Med Chem, 2024)
# pIC50: −log10 of the molar value.
# Key:
# Galectin-9 = Galectin-9 (Homo sapiens, UniProt O00182); assay: Inhibition of his-tagged N-terminal human Gal-9 preincubated for 30 mins followed by Biotin-ASF addition and measured after 1 hr by HTRF assay
# [1] = Permeability of the compound at pH 7.4 incubated for 4 hrs by PAMPA; type: ADME; details: for permeability: pampa, pH 7.4, 4 h; for Papp at 4 h: PAMPA, pH 7.4, read-out: permeability
# Galectin-3 [2] = target: Galectin-3 (Mus musculus, UniProt P16110); assay: Inhibition of his-tagged N-terminal recombinant mouse Gal-3 preincubated for 30 mins followed by Biotin-ASF addition and measured after 1 hr by HTRF assay
# Sequence of Galectin-3 (Mus musculus, UniProt P16110) (P16110 whole entry): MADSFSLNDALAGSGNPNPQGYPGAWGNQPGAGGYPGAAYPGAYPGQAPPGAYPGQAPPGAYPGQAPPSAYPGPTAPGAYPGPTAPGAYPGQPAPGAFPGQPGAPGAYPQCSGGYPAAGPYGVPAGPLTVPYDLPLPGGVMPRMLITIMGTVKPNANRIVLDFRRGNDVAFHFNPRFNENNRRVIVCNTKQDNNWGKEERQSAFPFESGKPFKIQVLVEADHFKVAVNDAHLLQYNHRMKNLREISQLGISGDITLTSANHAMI
# Galectin-1 = Galectin-1 (Homo sapiens, UniProt P09382); assay: Inhibition of his-tagged N-terminal human Gal-1 preincubated for 30 mins followed by Biotin-ASF addition and measured after 1 hr by HTRF assay
# Sequence of Galectin-1 (P09382 whole entry): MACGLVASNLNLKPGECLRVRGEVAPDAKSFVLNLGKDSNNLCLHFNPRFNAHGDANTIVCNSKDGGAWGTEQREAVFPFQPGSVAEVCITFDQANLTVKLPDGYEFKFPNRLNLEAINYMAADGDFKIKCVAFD
# [3] = Cmax in male C57BL/6 mouse at 10 mg/kg, po measured after 24 hrs by UPLC/MS/MS analysis; type: ADME, organism-based; details: in vivo
# [4] = Permeability of the compound at pH 5.5 incubated for 4 hrs by PAMPA; type: ADME; details: for Papp at 4 h: PAMPA, pH 5.5, read-out: permeability
# [5] = Permeability of the compound across apical to basolateral side in human Caco-2 cells assessed as drug recovery at pH 7.4 incubated for 2 hrs by LC-MS/MS analysis; type: ADME, cell-based; details: Caco-2, pH 7.4, read-out: Drug recovery
# [6] = Permeability of the compound in human Caco-2 cells across basolateral to apical side at pH 7.4 incubated for 2 hrs by LC-MS/MS analysis; type: ADME, cell-based; details: Caco-2, pH 7.4, read-out: permeability
# [7] = Tmax in male C57BL/6 mouse at 10 mg/kg, po measured after 24 hrs by UPLC/MS/MS analysis; type: ADME, organism-based; details: in vivo
# [8] = Permeability of the compound across basolateral to apical side in human Caco-2 cells assessed as drug recovery at pH 7.4 incubated for 2 hrs by LC-MS/MS analysis; type: ADME, cell-based; details: Caco-2, pH 7.4, read-out: Drug recovery
# [9] = AUC (0 to 24 hrs) in male C57BL/6 mouse at 10 mg/kg, po measured after 24 hrs by UPLC/MS/MS analysis; type: ADME, organism-based; details: in vivo
# [10] = Permeability of the compound in human Caco-2 cells across apical to basolateral side at pH 7.4 incubated for 2 hrs by LC-MS/MS analysis; type: ADME, cell-based; details: Caco-2, pH 7.4, read-out: permeability
# Galectin-3 [11] = target: Galectin-3 (Homo sapiens, UniProt P17931); assay: Inhibition of his-tagged N-terminal recombinant human Gal-3 preincubated for 30 mins followed by Biotin-ASF addition and measured after 1 hr by HTRF assay
# Sequence of Galectin-3 (Homo sapiens, UniProt P17931) (P17931 whole entry): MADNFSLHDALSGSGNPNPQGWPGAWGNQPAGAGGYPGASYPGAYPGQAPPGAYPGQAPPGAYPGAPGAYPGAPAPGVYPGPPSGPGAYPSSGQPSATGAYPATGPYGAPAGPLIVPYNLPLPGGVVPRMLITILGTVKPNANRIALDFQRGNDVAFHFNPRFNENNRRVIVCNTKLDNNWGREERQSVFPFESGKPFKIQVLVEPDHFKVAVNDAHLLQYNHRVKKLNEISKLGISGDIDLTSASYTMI
# Sequence of Galectin-9 (O00182 whole entry): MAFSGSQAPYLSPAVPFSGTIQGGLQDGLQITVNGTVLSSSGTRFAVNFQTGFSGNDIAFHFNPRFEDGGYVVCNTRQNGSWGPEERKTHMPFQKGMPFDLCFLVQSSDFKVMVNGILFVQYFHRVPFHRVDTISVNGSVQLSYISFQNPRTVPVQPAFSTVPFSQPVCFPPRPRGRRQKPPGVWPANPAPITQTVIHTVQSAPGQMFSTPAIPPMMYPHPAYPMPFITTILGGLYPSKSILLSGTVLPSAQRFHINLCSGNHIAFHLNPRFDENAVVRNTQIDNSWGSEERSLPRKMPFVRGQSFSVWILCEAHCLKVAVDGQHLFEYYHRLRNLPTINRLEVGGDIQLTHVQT
SMILES,pIC50 (Galectin-3 [2]),Papp at 4 h [4],Papp at 4 h [1],pIC50 (Galectin-3 [11]),further results
Cn1nc([C@@H]2O[C@H](CO)[C@H](O)[C@H](n3cc(-c4ccc(Br)c(F)c4F)nn3)[C@H]2O)n(-c2cc(Cl)ccc2C(F)(F)F)c1=S (stereo in doubt; 20),7.40,120 nm/s,,,pIC50 (Galectin-9): 5.14; permeability ([1]; 4 h): 86 nm/s; pIC50 (Galectin-1): 5.62; Cmax [3]: 1.9 µM; recovery at 2 h [5]: 59%; Papp B→A at 2 h [6]: 150 nm/s; Tmax [7]: 3 h; recovery at 2 h [8]: 80%; AUC(0-t) at 24 h [9]: 12 µM·h; Papp A→B at 2 h [10]: < 15 nm/s
OC[C@H]1O[C@@H](c2nncn2-c2cc(Cl)ccc2C(F)(F)F)[C@H](O)[C@@H](n2cc(-c3ccc(Br)c(F)c3F)nn2)[C@H]1O,7.16,70 nm/s,70 nm/s,,
OC[C@H]1O[C@@H](c2n[nH]c(=S)n2-c2cc(Cl)ccc2OC(F)(F)F)[C@H](O)[C@@H](n2cc(-c3ccc(Cl)c(F)c3F)nn2)[C@H]1O (stereo in doubt; 16),7.30,11 nm/s,2 nm/s,8.15,recovery at 2 h [5]: 67%; Papp B→A at 2 h [6]: 32 nm/s; recovery at 2 h [8]: 81%; Papp A→B at 2 h [10]: < 15 nm/s
Cn1nc([C@@H]2O[C@H](CO)[C@H](O)[C@H](n3cc(-c4ccc(Br)c(F)c4F)nn3)[C@H]2O)n(-c2cc(Cl)ccc2C(F)(F)F)c1=S (stereo in doubt; 21),5.42,,,,"permeability ([1]; 4 h): 280 nm/s; permeability ([4]; pampa, pH 5.5, 4 h, 4 h): 220 nm/s"
OC[C@H]1O[C@@H](c2n[nH]c(=S)n2-c2cc(Cl)ccc2C(F)(F)F)[C@H](O)[C@@H](n2cc(-c3ccc(Br)c(F)c3F)nn2)[C@H]1O (stereo in doubt; 19),6.00,,,7.12,permeability ([1]; 4 h): 2 nm/s
CO[C@@H]1[C@@H](n2cc(-c3ccc(Br)c(F)c3)nn2)[C@@H](O)[C@@H](CO)O[C@H]1c1nncn1-c1cc(Cl)ccc1C(F)(F)F,7.15,200 nm/s,220 nm/s,7.66,
OC[C@H]1O[C@@H](c2n[nH]c(=S)n2-c2cc(Cl)ccc2C(F)(F)F)[C@H](O)[C@@H](n2cc(-c3ccc(Br)c(F)c3F)nn2)[C@H]1O (stereo in doubt; 18),7.60,,1 nm/s,8.16,
OC[C@H]1O[C@@H](c2nncn2-c2cc(Cl)ccc2OC(F)(F)F)[C@H](O)[C@@H](n2cc(-c3ccc(Cl)c(F)c3F)nn2)[C@H]1O,7.00,,270 nm/s,7.89,
CO[C@@H]1[C@@H](n2cc(-c3ccc(Cl)c(F)c3F)nn2)[C@@H](O)[C@@H](CO)O[C@H]1c1nncn1-c1cc(Cl)ccc1OC(F)(F)F,7.00,540 nm/s,490 nm/s,,pIC50 (Galectin-9): 5.62; pIC50 (Galectin-1): 5.70; Cmax [3]: 3 µM; Tmax [7]: 3 h; AUC(0-t) at 24 h [9]: 16 µM·h
OC[C@H]1O[C@@H](c2nncn2-c2cc(Cl)ccc2C(F)(F)F)[C@H](O)[C@@H](n2cc(-c3ccc(Cl)c(F)c3)nn2)[C@H]1O,7.00,18 nm/s,21 nm/s,,
OC[C@H]1O[C@@H](c2nncn2-c2cc(Cl)ccc2Cl)[C@H](O)[C@@H](n2cc(-c3cc(F)c(Cl)c(F)c3)nn2)[C@H]1O,6.46,36 nm/s,17 nm/s,,
OC[C@H]1O[C@@H](c2nncn2-c2cc(Cl)ccc2OC(F)(F)F)[C@H](O)[C@@H](n2cc(-c3ccc(Br)c(F)c3F)nn2)[C@H]1O,7.21,210 nm/s,180 nm/s,,
OC[C@H]1O[C@@H](c2nncn2-c2cc(Cl)ccc2C(F)(F)F)[C@H](OCC(F)(F)C(F)F)[C@@H](n2cc(-c3ccc(Br)c(F)c3F)nn2)[C@H]1O,6.96,680 nm/s,880 nm/s,,
OC[C@H]1O[C@H](Sc2ccc(Cl)c(Cl)c2)[C@H](O)[C@@H](n2cc(-c3cc(F)c(F)c(F)c3)nn2)[C@H]1O,,,,,Cmax [3]: 6.3 µM; Tmax [7]: 7 h; AUC(0-t) at 24 h [9]: 84 µM·h
Cc1nnc([C@@H]2O[C@H](CO)[C@H](O)[C@H](n3cc(-c4cc(F)c(Cl)c(F)c4)nn3)[C@H]2O)n1-c1cc(Cl)ccc1C(F)(F)F (stereo in doubt; 5),5.15,,,5.89,permeability ([1]; 4 h): 16 nm/s
OC[C@H]1O[C@@H](c2n[nH]c(=S)n2-c2cc(Cl)ccc2OC(F)(F)F)[C@H](O)[C@@H](n2cc(-c3ccc(Cl)c(F)c3F)nn2)[C@H]1O (stereo in doubt; 17),6.14,,,7.15,permeability [1]: 2 nm/s
Cc1nnc([C@@H]2O[C@H](CO)[C@H](O)[C@H](n3cc(-c4cc(F)c(Cl)c(F)c4)nn3)[C@H]2O)n1-c1cc(Cl)ccc1C(F)(F)F (stereo in doubt; 4),7.17,,,,pIC50 (Galectin-9): 5.40; permeability ([1]; 4 h): 44 nm/s; pIC50 (Galectin-1): 5.60
CO[C@@H]1[C@@H](n2cc(-c3cc(F)c(Cl)c(F)c3)nn2)[C@@H](O)[C@@H](CO)O[C@H]1c1nncn1-c1cc(Cl)ccc1C(F)(F)F,6.80,,,,pIC50 (Galectin-9): 5.15; pIC50 (Galectin-1): 5.15
CO[C@@H]1[C@@H](n2cc(-c3ccc(Br)c(F)c3F)nn2)[C@@H](O)[C@@H](CO)O[C@H]1c1nncn1-c1cc(Cl)ccc1C(F)(F)F,7.28,330 nm/s,280 nm/s,8.05,
Cc1nc([C@@H]2O[C@H](CO)[C@H](O)[C@H](n3cc(-c4cc(F)c(Cl)c(F)c4)nn3)[C@H]2O)n(-c2cc(Cl)ccc2C(F)(F)F)n1,,,,,Tmax [7]: 3 h
OC[C@H]1O[C@@H](c2ncnn2-c2ccc(Cl)c(Cl)c2)[C@H](O)[C@@H](n2cc(-c3cc(F)c(F)c(F)c3)nn2)[C@H]1O,,,,,Cmax [3]: 0.41 µM; Tmax [7]: 3 h; AUC(0-t) at 24 h [9]: 1.8 µM·h
